The target in assay [1] is Sodium channel protein type 2 subunit alpha (Homo sapiens) (UniProt Q99250). The experiment in a line: Selectivity interaction (Panel of non-epigenetic targets (kinases, GPCRs, ion channels, and transporters, Eurofins) ) EUB0000271b SCN2A. The note with it: at 1 µM.
Assay [2] addresses Fibroblast growth factor receptor 1 (Homo sapiens, UniProt P11362). The following applies: at 10 µM.
Assay [3] has as its target T1, cGMP-dependent protein kinase 1 (Homo sapiens) (UniProt Q13976).
T1 sequence (whole entry): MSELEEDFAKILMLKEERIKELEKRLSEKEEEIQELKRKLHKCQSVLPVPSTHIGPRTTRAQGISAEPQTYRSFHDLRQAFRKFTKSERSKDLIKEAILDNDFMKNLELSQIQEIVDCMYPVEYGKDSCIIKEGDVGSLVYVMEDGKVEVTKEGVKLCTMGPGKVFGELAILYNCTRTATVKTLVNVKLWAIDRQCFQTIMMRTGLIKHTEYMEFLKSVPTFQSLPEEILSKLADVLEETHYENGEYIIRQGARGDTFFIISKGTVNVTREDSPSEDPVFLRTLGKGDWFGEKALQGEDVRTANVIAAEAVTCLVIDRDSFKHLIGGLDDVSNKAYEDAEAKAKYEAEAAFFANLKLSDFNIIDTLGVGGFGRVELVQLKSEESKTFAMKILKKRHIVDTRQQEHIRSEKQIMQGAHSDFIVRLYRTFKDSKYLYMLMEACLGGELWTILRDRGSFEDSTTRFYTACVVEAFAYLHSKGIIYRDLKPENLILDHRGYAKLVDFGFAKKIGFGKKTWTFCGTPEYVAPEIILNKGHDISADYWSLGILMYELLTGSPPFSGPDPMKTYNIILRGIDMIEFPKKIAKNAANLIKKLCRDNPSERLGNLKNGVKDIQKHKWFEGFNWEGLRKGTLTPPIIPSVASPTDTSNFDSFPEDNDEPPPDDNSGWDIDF
The experiment in a line: Selectivity interaction (KinomeScan (DiscoverX)) EUB0000229b PRKG1. The note with it: at 10 µM.

For assay [4], the target named is Receptor tyrosine-protein kinase erbB-2 (Homo sapiens, UniProt P04626). The experiment in a line: Selectivity interaction (KinomeScan (DiscoverX)) EUB0001079a ERBB2. The following applies: at 1 µM.
Assay [5] deals with T2, Diacylglycerol kinase eta (Homo sapiens) (UniProt Q86XP1).
T2 sequence (whole entry): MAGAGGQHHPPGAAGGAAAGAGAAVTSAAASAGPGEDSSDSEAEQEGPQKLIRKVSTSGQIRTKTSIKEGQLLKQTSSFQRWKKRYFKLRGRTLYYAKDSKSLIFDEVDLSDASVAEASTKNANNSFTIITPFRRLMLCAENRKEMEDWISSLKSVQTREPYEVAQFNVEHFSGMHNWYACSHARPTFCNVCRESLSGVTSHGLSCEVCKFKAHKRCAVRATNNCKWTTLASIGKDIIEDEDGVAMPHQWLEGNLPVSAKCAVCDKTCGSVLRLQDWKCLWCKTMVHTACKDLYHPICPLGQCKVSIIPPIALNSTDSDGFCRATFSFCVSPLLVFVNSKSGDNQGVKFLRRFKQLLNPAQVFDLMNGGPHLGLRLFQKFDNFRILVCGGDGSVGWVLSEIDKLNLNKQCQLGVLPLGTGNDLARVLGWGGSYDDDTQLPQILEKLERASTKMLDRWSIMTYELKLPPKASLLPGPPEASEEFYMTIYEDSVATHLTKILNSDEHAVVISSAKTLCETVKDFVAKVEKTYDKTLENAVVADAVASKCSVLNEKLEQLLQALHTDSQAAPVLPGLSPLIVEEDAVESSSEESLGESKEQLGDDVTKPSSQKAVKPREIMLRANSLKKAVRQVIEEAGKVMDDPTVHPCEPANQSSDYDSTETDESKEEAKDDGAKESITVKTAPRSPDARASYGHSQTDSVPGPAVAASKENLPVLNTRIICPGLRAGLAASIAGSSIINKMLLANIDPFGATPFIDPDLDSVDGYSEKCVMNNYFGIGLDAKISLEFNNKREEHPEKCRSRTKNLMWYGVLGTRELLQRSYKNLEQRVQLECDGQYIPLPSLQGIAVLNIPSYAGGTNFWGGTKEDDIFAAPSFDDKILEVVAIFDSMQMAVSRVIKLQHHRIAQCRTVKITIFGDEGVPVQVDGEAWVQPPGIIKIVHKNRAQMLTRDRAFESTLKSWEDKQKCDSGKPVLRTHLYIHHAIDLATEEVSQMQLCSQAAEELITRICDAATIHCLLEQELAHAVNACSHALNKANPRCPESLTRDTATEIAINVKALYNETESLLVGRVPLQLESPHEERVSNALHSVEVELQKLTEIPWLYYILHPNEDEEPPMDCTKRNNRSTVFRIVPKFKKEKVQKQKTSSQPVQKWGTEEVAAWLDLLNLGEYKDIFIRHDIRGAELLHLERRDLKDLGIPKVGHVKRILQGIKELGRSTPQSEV
The experiment in a line: Selectivity interaction (ActivX KiNativ screen (kinase selectivity in THP-1 cell lysates)) EUB0000639a DGKH. The assay is classed as subcellular. The following applies: lysate.

For the next assay, the target named is SRSF protein kinase 1 (Homo sapiens, UniProt Q96SB4). The experiment in a line: Selectivity interaction (Kinase panel (Invitrogen)) EUB0000639a SRPK1. The note with it: at 200 nM.
Assay [6] addresses T3, STE20-related kinase adapter protein alpha (Homo sapiens) (UniProt Q7RTN6).
T3 sequence (whole entry): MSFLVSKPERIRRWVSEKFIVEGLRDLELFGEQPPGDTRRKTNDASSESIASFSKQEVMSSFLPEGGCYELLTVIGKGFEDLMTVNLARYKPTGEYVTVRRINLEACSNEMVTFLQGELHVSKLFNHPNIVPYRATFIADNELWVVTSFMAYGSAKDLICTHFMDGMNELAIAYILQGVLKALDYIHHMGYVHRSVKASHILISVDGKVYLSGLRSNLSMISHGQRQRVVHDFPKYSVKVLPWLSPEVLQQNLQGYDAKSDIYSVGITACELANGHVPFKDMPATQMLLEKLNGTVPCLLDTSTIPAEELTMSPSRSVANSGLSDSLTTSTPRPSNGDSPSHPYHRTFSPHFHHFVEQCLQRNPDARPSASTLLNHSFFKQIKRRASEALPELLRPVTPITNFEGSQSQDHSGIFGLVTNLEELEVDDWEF
The experiment in a line: Selectivity interaction (ActivX KiNativ screen (kinase selectivity in THP-1 cell lysates)) EUB0000639a STRADA. The assay is classed as subcellular. The note with it: lysate, at 0.04 µM.

The target in assay [7] is Protein-tyrosine kinase 2-beta (Homo sapiens) (UniProt Q14289). The experiment in a line: Selectivity interaction (Kinase screening (Nanosyn)) EUB0000604a PTK2B.
Chain of Protein-tyrosine kinase 2-beta (Homo sapiens) (Q14289 whole entry, looked up): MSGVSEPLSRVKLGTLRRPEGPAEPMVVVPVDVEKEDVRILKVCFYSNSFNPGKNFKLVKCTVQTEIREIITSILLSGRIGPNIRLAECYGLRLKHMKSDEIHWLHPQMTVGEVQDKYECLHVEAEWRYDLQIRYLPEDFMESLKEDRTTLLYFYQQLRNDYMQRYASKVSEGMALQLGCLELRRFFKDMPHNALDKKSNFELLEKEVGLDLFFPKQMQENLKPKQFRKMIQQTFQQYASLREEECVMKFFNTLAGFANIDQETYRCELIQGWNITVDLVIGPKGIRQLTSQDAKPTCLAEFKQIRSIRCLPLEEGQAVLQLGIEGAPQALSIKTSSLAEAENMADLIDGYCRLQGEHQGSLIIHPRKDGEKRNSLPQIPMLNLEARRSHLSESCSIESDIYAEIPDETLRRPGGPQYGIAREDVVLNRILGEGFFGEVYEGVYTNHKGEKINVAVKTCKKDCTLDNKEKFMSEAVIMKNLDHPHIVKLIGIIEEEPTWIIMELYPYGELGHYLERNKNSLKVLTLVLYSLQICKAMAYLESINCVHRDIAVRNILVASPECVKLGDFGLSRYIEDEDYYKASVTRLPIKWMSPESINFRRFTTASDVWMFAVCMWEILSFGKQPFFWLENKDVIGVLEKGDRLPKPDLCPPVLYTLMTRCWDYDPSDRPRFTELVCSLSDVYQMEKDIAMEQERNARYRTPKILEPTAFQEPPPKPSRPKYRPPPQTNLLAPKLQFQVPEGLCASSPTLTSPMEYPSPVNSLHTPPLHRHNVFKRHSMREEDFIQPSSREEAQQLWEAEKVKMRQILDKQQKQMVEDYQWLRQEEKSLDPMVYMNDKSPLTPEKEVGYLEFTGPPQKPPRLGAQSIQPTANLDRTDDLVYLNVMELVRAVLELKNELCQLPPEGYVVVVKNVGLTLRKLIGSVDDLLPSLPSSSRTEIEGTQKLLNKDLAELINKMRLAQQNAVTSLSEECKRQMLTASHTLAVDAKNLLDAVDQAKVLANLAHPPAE

Chain of Fibroblast growth factor receptor 1 (P11362 22-822 limits assumed): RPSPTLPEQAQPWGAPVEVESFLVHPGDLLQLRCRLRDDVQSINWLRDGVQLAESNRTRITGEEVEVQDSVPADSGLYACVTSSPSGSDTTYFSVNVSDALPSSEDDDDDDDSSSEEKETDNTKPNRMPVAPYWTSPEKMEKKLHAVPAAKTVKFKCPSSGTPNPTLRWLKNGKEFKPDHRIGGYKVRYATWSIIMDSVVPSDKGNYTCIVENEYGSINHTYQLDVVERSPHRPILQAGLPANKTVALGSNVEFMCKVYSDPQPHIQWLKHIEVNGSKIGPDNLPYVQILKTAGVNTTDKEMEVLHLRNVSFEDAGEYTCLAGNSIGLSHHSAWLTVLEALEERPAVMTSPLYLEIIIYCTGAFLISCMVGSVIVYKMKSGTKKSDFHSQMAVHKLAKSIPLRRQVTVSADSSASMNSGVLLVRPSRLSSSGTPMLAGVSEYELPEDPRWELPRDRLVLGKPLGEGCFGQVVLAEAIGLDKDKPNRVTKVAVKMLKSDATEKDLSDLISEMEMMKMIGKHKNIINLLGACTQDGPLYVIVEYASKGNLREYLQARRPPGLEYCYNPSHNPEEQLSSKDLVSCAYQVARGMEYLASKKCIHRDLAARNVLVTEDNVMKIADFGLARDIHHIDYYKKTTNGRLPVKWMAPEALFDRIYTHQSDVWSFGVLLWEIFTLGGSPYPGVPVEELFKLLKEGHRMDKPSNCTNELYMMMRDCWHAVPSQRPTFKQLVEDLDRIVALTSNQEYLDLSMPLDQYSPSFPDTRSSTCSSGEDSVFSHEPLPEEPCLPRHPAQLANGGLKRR
Chain of SRSF protein kinase 1 (Q96SB4 whole entry): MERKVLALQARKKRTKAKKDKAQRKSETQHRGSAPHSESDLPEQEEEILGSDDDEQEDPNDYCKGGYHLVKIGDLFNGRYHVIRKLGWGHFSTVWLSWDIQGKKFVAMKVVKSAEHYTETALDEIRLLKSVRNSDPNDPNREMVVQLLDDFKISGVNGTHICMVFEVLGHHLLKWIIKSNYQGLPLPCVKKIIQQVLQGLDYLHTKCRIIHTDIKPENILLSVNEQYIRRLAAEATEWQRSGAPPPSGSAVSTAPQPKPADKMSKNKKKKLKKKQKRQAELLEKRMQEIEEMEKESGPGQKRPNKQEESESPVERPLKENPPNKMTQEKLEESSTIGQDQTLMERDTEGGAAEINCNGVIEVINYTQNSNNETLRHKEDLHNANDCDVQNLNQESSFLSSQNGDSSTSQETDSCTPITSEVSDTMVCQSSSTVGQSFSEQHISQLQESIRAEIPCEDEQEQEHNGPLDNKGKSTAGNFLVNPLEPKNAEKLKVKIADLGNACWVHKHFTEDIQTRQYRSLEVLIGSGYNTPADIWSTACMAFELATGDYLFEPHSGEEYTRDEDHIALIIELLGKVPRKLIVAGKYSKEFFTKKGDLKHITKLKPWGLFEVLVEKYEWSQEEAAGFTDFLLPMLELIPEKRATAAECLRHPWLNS
Chain of Sodium channel protein type 2 subunit alpha (Homo sapiens) (Q99250 whole entry, looked up): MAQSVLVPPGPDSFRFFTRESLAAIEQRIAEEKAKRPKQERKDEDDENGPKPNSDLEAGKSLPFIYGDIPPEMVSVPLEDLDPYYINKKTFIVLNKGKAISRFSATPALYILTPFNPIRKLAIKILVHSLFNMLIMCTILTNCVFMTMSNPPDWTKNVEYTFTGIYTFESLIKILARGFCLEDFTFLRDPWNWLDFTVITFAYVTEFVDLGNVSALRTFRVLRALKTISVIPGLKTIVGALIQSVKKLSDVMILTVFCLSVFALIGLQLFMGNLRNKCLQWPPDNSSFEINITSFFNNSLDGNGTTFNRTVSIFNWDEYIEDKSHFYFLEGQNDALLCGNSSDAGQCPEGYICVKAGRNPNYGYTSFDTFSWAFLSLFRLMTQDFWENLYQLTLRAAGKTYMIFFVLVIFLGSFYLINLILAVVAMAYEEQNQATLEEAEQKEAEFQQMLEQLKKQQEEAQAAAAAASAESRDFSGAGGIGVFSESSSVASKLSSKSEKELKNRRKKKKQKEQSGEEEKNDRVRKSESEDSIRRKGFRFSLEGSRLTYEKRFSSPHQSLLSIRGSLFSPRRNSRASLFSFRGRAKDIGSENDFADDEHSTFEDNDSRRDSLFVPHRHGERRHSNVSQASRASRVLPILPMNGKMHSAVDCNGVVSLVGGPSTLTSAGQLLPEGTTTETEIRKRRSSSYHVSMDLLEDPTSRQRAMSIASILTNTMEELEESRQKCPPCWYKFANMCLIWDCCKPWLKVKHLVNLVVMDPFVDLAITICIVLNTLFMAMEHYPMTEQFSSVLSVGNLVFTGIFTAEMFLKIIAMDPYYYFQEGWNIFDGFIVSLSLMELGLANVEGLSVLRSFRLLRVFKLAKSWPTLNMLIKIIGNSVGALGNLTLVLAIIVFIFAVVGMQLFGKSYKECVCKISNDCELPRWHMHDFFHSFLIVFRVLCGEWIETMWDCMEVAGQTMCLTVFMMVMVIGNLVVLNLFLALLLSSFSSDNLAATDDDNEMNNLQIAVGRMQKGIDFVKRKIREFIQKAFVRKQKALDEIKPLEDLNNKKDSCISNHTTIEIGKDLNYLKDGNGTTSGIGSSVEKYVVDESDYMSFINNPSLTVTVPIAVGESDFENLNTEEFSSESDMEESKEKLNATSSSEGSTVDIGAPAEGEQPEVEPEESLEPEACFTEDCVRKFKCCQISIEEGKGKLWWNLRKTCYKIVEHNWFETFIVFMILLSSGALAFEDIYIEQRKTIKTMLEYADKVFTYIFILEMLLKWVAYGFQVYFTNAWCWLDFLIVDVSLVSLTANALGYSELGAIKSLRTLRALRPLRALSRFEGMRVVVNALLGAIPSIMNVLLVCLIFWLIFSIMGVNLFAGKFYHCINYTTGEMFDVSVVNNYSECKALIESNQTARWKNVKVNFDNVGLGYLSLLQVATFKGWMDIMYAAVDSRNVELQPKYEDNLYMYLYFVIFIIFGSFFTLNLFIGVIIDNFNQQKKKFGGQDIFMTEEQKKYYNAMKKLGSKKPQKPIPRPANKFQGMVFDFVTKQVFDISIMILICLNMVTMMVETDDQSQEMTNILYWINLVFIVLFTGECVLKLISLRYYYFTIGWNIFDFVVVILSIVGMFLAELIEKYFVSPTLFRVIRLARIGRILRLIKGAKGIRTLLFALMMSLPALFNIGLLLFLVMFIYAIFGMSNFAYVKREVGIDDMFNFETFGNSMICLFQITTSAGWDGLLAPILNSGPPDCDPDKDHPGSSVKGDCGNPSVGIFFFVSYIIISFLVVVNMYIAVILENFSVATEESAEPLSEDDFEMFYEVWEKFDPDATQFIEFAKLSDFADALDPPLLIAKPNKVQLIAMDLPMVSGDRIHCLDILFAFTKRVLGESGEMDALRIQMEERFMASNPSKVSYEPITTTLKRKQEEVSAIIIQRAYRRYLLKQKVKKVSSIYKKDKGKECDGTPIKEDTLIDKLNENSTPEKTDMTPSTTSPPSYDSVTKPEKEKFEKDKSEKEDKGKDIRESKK

`Cc1cc(C)cc([C@@H]2c3cc(C)ccc3NC(=O)CN2C(=O)c2ccc(Br)s2)c1`: the % of inhibition in assay [1] is -22%.
For the compound `Cc1cc([C@@H](C)Nc2ccccc2C(=O)O)c2nc(N3CCOCC3)cc(=O)n2c1` [AZD-6482], in assay [2], the % of control amounted to 89%.
`COc1cc(N(C)c2ccnc3ccc(C(F)(F)F)cc23)cc(OC)c1OC` registered a % binding in assay [3] of 76%.
In assay [4], `Nc1cnc(N2CCc3cc(S(=O)(=O)Nc4c(F)cc(Cl)cc4F)cc(N4CCCC4=O)c32)nc1` [TP-020n] came in with a % of control of 100%.
With `CC[C@@H]1[C@H](F)C(=O)N[C@@H]1COc1nccc2cc(C(N)=O)c(OC)cc12` [ZIMLOVISERTIB], the % of inhibition was 12.2% in assay [5] (at 0.01 µM); 0% in assay [5] (at 0.04 µM); 20% in assay [5] (at 0.2 µM); 0.8% in assay [5] (at 1 µM); -3.6% in assay [5] (at 5 µM); 0.109% at SRSF protein kinase 1. For the same compound, in assay [6], the % of inhibition was -6%.
On to `Cc1cnc(Nc2ccc(F)cc2Cl)nc1-c1c[nH]c(C(=O)N[C@H](CO)c2cccc(Cl)c2)c1`, for which the % of inhibition in assay [7] worked out at 6%.

Source of the values: ChEMBL document CHEMBL5465560, “Selectivity Literature for EUbOPEN Chemogenomic Library” (2024).
